The structures appear in SMILES notation. pIC50: −log10 of the molar value. Like-named read-outs stand apart in the source and are kept apart here. Some results are limits rather than exact numbers.

One assay concerns the target Mer (Homo sapiens (Human), UniProt Q12866). Description: Microfluidic Capillary Electrophoresis (MCE) kinase activity assay, Mer. Format: biochemical.
The next assay has as its target Tyro3 (Homo sapiens (Human), UniProt Q06418). Description: Microfluidic Capillary Electrophoresis (MCE) kinase activity assay, Tyro3. The class given is biochemical.
Where [1] appears, read: MCE assay, Mer 2.0 nM, ATP 5.0 uM (at Km), 1.0 μM fluorescent substrate, 180 min incubation.
Setting [2] is: MCE assay, Tyro 10 nM, ATP 21 uM (at Km), 1.0 μM fluorescent substrate, 180 min incubation.

Sequence of Mer (Q12866 21-999): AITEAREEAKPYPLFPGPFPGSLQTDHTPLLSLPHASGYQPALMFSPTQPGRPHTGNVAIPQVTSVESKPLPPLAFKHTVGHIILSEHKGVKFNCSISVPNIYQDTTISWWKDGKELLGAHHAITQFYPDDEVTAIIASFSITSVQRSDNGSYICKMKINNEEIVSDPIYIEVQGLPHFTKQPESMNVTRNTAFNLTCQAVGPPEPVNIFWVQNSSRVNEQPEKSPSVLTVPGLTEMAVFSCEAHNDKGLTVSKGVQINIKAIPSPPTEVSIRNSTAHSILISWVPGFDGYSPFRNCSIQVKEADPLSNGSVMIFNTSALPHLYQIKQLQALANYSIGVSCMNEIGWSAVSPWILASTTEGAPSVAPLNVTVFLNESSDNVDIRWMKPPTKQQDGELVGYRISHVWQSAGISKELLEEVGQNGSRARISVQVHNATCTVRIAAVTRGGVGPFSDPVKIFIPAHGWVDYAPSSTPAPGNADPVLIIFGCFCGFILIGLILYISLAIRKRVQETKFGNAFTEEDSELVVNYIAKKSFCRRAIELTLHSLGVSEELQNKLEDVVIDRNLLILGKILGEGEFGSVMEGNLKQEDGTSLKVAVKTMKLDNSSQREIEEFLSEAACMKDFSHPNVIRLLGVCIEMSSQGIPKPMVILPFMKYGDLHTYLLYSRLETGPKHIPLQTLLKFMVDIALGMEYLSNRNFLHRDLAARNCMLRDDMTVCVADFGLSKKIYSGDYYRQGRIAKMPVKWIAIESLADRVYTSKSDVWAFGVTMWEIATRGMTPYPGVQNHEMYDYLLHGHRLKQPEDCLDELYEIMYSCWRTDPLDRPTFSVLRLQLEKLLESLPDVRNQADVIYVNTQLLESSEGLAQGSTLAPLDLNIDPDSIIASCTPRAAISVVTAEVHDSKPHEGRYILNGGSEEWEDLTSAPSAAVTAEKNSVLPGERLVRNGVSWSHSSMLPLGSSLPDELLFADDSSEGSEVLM
Sequence of Tyro3 (Q06418 41-890): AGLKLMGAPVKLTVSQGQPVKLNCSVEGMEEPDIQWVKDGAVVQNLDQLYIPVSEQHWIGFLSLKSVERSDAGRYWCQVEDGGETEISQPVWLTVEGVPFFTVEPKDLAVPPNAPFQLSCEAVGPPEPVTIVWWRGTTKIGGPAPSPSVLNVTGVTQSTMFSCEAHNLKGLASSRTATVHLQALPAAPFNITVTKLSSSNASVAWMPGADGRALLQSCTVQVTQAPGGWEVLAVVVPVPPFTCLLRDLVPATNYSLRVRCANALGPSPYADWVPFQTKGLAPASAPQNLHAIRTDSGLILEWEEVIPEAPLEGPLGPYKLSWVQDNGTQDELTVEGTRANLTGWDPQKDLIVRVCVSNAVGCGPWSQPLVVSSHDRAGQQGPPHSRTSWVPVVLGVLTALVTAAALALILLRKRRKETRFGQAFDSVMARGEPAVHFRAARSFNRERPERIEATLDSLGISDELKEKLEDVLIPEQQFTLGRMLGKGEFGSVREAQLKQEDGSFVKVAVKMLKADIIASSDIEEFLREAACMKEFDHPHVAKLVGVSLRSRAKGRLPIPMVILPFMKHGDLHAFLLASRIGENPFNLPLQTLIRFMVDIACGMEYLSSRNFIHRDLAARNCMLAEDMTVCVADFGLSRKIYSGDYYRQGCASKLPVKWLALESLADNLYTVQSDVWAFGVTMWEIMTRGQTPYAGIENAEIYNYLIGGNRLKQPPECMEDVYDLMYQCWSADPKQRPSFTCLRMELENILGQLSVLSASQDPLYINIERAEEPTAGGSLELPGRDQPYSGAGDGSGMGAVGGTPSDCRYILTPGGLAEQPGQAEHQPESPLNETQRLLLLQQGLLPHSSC

One may read the pIC50 as the IC50 on a negative log10 scale, so that one unit is a factor of ten. Low readings indicate a high IC50, high ones a low IC50. Regarding `COc1cccc(Nc2ncc(C3CCN(C(=O)C4CCCC4)CC3)c(N[C@H]3CC[C@H](O)CC3)n2)c1` [Compound 1, cyclopentyl(4-(4-((trans-4-hydroxycyclohexyl)amino)-2-((3-methoxyphenyl)amino)pyrimidin-5-yl)piperidin-1-yl)methanone], the pIC50 against Mer and against Tyro3 was 6.00 to 7.00 in each case.

For `COc1cc(Nc2ncc(C3CCN(C(=O)OC(C)(C)C)CC3)c(N[C@H]3CC[C@H](O)CC3)n2)ccn1` [Compound 2], the negative-log IC50 (pIC50) on Mer and on Tyro3 was 7.00 to 8.00 each time.

Take `COc1cccc(Nc2ncc(C3CCN(CC4CCCC4)CC3)c(N[C@H]3CC[C@H](O)CC3)n2)c1` [Compound 4, trans-4-((5-(1-(cyclopentylmethyl)piperidin-4-yl)-2-((3-methoxyphenyl)amino)pyrimidin-4-yl)amino)cyclohexan-1-ol]: the pIC50 against Mer (setting [1]) was over 8.00; against Tyro3, 7.00 to 8.00.

For the compound `COc1cc(Nc2ncc(C3CCN(CC4CCCC4)CC3)c(N[C@H]3CC[C@H](O)CC3)n2)ccn1` [Compound 5], the negative-log IC50 (pIC50) is over 8.00 at Mer (setting [1]) and 7.00 to 8.00 against Tyro3.

Regarding `COc1cc(Nc2ncc(C3CCN(C)CC3)c(N[C@H]3CC[C@H](O)CC3)n2)ccn1` [Compound 6], the pIC50 against Mer and against Tyro3 was 7.00 to 8.00 each time.

As to `Cc1cc(Nc2ncc(C3CCNCC3)c(N[C@H]3CC[C@H](O)CC3)n2)ccn1` [Compound 8], the pIC50 against Mer and against Tyro3 was 7.00 to 8.00 each time.

Regarding `O[C@H]1CC[C@H](Nc2nc(Nc3ccnc(Cl)c3)ncc2C2CCNCC2)CC1` [Compound 9], the negative-log IC50 (pIC50) on Mer and on Tyro3 was 7.00 to 8.00 each time.

With `Cc1cc(Nc2ncc(C3CCNCC3)c(N[C@H]3CC[C@H](O)CC3)n2)cc(C)n1` [Compound 10], the pIC50 against Mer is 4.52 to 6.00; at Tyro3 it was 7.00 to 8.00.

For `Cc1cc(Nc2ncc(C3CCN(C4CCCC4)CC3)c(N[C@H]3CC[C@H](O)CC3)n2)ccn1` [Compound 11, trans-4-((5-(1-cyclopentylpiperidin-4-yl)-2-((2-methylpyridin-4-yl)amino)pyrimidin-4-yl)amino)cyclohexan-1-ol], the pIC50 against Mer (setting [1]) is over 8.00; on Tyro3, 7.00 to 8.00.

As to `O[C@H]1CC[C@H](Nc2nc(Nc3ccnc(Cl)c3)ncc2C2CCN(C3CCCC3)CC2)CC1` [Compound 12], the pIC50 against Mer (setting [1]) and against Tyro3 (setting [2]) was over 8.00 each time.

As for `O[C@H]1CC[C@H](Nc2nc(Nc3ccnc(C(F)(F)F)c3)ncc2C2CCN(C3CCCC3)CC2)CC1` [Compound 13], the values for the pIC50 against Mer and against Tyro3 were over 8.00 and 7.00 to 8.00, respectively.

For the compound `NC(=O)c1cc(Nc2ncc(C3CCN(C4CCCC4)CC3)c(N[C@H]3CC[C@H](O)CC3)n2)ccn1` [Compound 14], the pIC50 against Mer and against Tyro3 was 7.00 to 8.00 throughout.

Turning to `Cc1cc(Nc2ncc(C3CCN(CC4CCCC4)CC3)c(N[C@H]3CC[C@H](O)CC3)n2)ccn1` [Compound 15], the pIC50 against Mer (setting [1]) is over 8.00; on Tyro3, 7.00 to 8.00.

As for `O[C@H]1CC[C@H](Nc2nc(Nc3ccnc(Cl)c3)ncc2C2CCN(CC3CCCC3)CC2)CC1` [Compound 16], the pIC50 against Mer (setting [1]) and against Tyro3 (setting [2]) was over 8.00 each time.

Regarding `O[C@H]1CC[C@H](Nc2nc(Nc3ccnc(C(F)(F)F)c3)ncc2C2CCN(CC3CCCC3)CC2)CC1` [Compound 17], the pIC50 against Mer and against Tyro3 was 7.00 to 8.00 each time.

`CC(F)(F)c1cc(Nc2ncc(C3CCN(CC4CCCC4)CC3)c(N[C@H]3CC[C@H](O)CC3)n2)ccn1` [Compound 18]: the pIC50 against Mer (setting [1]) and against Tyro3 (setting [2]) was over 8.00 in each case.

As to `Cc1cc(Nc2ncc(C3CCN(CC4CCCC4)CC3)c(N[C@H]3CC[C@H](O)CC3)n2)cc(C)n1` [Compound 19], the figures for the pIC50 on Mer and against Tyro3 were 6.00 to 7.00 and 7.00 to 8.00, respectively.

Take `NC(=O)c1cc(Nc2ncc(C3CCN(CC4CCCC4)CC3)c(N[C@H]3CC[C@H](O)CC3)n2)ccn1` [Compound 20]: the pIC50 is over 8.00 against Mer (setting [1]) and 7.00 to 8.00 against Tyro3.

Regarding `COc1cc(Nc2ncc(C3CCNCC3)c(N[C@H]3CC[C@H](NC(C)=O)CC3)n2)ccn1` [Compound 21], the pIC50 on Mer and against Tyro3 was 7.00 to 8.00 throughout.

With `COc1cc(Nc2ncc(C3CCN(C4CCCC4)CC3)c(N[C@H]3CC[C@H](NC(C)=O)CC3)n2)ccn1` [Compound 22], the pIC50 was 6.00 to 7.00 at Mer and 4.52 to 6.00 on Tyro3.

For `COc1cc(Nc2ncc(C3CCN(C4CCCC4)CC3)c(N[C@H]3CC[C@H](N)CC3)n2)ccn1` [Compound 23], the pIC50 against Mer (setting [1]) is over 8.00; on Tyro3, 7.00 to 8.00.

For `COc1cc(Nc2ncc(C3CCN(C4CCCC4)CC3)c(N[C@H]3CC[C@H](N(C)C)CC3)n2)ccn1` [Compound 24], the pIC50 against Mer was 7.00 to 8.00; against Tyro3, 6.00 to 7.00.

For `COc1cc(Nc2ncc(C3CCN(C4CCCC4)CC3)c(N[C@H]3CC[C@H](O)CC3)n2)ccn1` [Compound 25], the pIC50 against Mer (setting [1]) was over 8.00; against Tyro3, 7.00 to 8.00.

As to `COc1cc(Nc2ncc(C3CCN(C(=O)C4CCCC4)CC3)c(N[C@H]3CC[C@H](O)CC3)n2)ccn1` [Compound 26, Cyclopentyl(4-(4-((trans-4-hydroxycyclohexyl)amino)-2-((2-methoxypyridin-4-yl)amino)pyrimidin-5-yl)piperidin-1-yl)methanone], the pIC50 on Mer and against Tyro3 was 7.00 to 8.00 in each case.

As for `O[C@H]1CC[C@H](Nc2nc(Nc3ccnc(Cl)c3)ncc2C2CCN(CC3COC3)CC2)CC1` [Compound 28], the pIC50 at Mer and against Tyro3 was 7.00 to 8.00 throughout.

As for `CN1CCC(CN2CCC(c3cnc(Nc4ccnc(Cl)c4)nc3N[C@H]3CC[C@H](O)CC3)CC2)CC1` [Compound 29], the pIC50 against Mer and against Tyro3 was 7.00 to 8.00 in each case.

`O[C@H]1CC[C@H](Nc2nc(Nc3ccnc(Cl)c3)ncc2C2CCN(CC3CCC(F)(F)CC3)CC2)CC1` [Compound 30]: the pIC50 against Mer (setting [1]) and on Tyro3 (setting [2]) was over 8.00 throughout.

In the case of `Cc1cc(CN2CCC(c3cnc(Nc4ccnc(Cl)c4)nc3N[C@H]3CC[C@H](O)CC3)CC2)no1` [Compound 31], the values for the pIC50 on Mer (setting [1]) and at Tyro3 were over 8.00 and 7.00 to 8.00, respectively.

On to `O[C@H]1CC[C@H](Nc2nc(Nc3ccnc(Cl)c3)ncc2C2CCN(Cc3ccccc3)CC2)CC1` [Compound 32], for which the pIC50 is over 8.00 on Mer (setting [1]) and 7.00 to 8.00 against Tyro3.

On to `O[C@H]1CC[C@H](Nc2nc(Nc3ccnc(Cl)c3)ncc2C2CCN(CC3CCC3)CC2)CC1` [Compound 33], for which the negative logarithm of the IC50 (pIC50) against Mer (setting [1]) and against Tyro3 (setting [2]) was over 8.00 each time.

For `O[C@H]1CC[C@H](Nc2nc(Nc3ccnc(Cl)c3)ncc2C2CCN(CC3CCOCC3)CC2)CC1` [Compound 34], the pIC50 against Mer (setting [1]) is over 8.00; at Tyro3, 7.00 to 8.00.

With `O[C@H]1CC[C@H](Nc2nc(Nc3ccnc(F)c3)ncc2C2CCNCC2)CC1` [Compound 37], the values for the pIC50 on Mer (setting [1]) and against Tyro3 were over 8.00 and 7.00 to 8.00, respectively.

For the compound `O[C@H]1CC[C@H](Nc2nc(Nc3ccnc(C4CC4)c3)ncc2C2CCNCC2)CC1` [Compound 41], the pIC50 against Mer and on Tyro3 was 7.00 to 8.00 in each case.

Turning to `O[C@H]1CC[C@H](Nc2nc(Nc3ccnc(N4CCCC4)c3)ncc2C2CCNCC2)CC1` [Compound 43], the pIC50 on Mer was 6.00 to 7.00; against Tyro3, 4.52 to 6.00.

As to `CN1CCN(c2cc(Nc3ncc(C4CCNCC4)c(N[C@H]4CC[C@H](O)CC4)n3)ccn2)CC1` [Compound 44], the pIC50 was 7.00 to 8.00 against Mer and 6.00 to 7.00 on Tyro3.

For the compound `O[C@H]1CC[C@H](Nc2nc(Nc3ccnc(N4CCCCC4)c3)ncc2C2CCNCC2)CC1` [Compound 45], the pIC50 at Mer and against Tyro3 was 4.52 to 6.00 throughout.

With `O[C@H]1CC[C@H](Nc2nc(Nc3ccnc(Cl)c3)ncc2C2CCN(CC3CC3)CC2)CC1` [Compound 46], the pIC50 against Mer (setting [1]) and against Tyro3 (setting [2]) was over 8.00 in each case.

For the compound `O[C@H]1CC[C@H](Nc2nc(Nc3ccnc(Cl)c3)ncc2C2CCN(c3ccccc3)CC2)CC1` [Compound 47, trans-4-((2-((2-Chloropyridin-4-yl)amino)-5-(1-phenylpiperidin-4-yl)pyrimidin-4-yl)amino)cyclohexan-1-ol], the pIC50 against Mer and on Tyro3 was 7.00 to 8.00 each time.

Consider `CC1(C)CC(N2CCC(c3cnc(Nc4ccnc(Cl)c4)nc3N[C@H]3CC[C@H](O)CC3)CC2)C1` [Compound 48], for which the pIC50 at Mer (setting [1]) and on Tyro3 (setting [2]) was over 8.00 in each case.

As for `O[C@H]1CC[C@H](Nc2nc(Nc3ccnc(Cl)c3)ncc2C2CCN(C3CC(C4CC4)C3)CC2)CC1` (stereo partly drawn) [Compound 49], the pIC50 against Mer (setting [1]) and at Tyro3 (setting [2]) was over 8.00 throughout.

For the compound `N#Cc1cc(Nc2ncc(C3CCN(CC4CCCC4)CC3)c(N[C@H]3CC[C@H](O)CC3)n2)ccn1` [Compound 55], the pIC50 at Mer (setting [1]) was over 8.00; against Tyro3, 7.00 to 8.00.

In the case of `N#Cc1cc(Nc2ncc(C3CCN(CC4CCC(F)(F)CC4)CC3)c(N[C@H]3CC[C@H](O)CC3)n2)ccn1` [Compound 56], the pIC50 was over 8.00 on Mer (setting [1]) and 7.00 to 8.00 against Tyro3.

(Values after US12448365B2, “Aryl aminopyrimidines as dual MerTK and TYRO3 inhibitors and methods thereof” (The University of North Carolina at Chapel Hill, priority 2019, dated 2025).)
